Source: ChEMBL document CHEMBL4507274 (2021)

How the values were obtained:
[1] = molecular target: Histamine H2 receptor (Homo sapiens) (UniProt P25021); conditions: Compound concentration 10.0 uM
[2] = molecular target: STE20-like serine/threonine-protein kinase (Homo sapiens) (UniProt Q9H2G2); conditions: Compound concentration 100.0 nM
[3] = molecular target: Fibroblast growth factor receptor 1 (Homo sapiens) (UniProt P11362); conditions: Compound concentration 100.0 nM
[4] = molecular target: Protein-tyrosine kinase 2-beta (Homo sapiens) (UniProt Q14289); conditions: Compound concentration 100.0 nM
[5] = molecular target: Serine/threonine-protein kinase mTOR (Homo sapiens) (UniProt P42345); conditions: Compound concentration 100.0 nM
[6] = molecular target: Cyclin-dependent kinase 15 (Homo sapiens) (UniProt Q96Q40); conditions: Compound concentration 100.0 nM
[7] = molecular target: TGF-beta receptor type-1 (Homo sapiens) (UniProt P36897); conditions: Compound concentration 100.0 nM
[8] = molecular target: Dual specificity protein kinase CLK4 (Homo sapiens) (UniProt Q9HAZ1); conditions: Compound concentration 100.0 nM
[9] = molecular target: Protein kinase C theta type (Homo sapiens) (UniProt Q04759); conditions: Compound concentration 100.0 nM
[10] = molecular target: Mitogen-activated protein kinase kinase kinase 2 (Homo sapiens) (UniProt Q9Y2U5); conditions: Compound concentration 100.0 nM
[11] = molecular target: Serine/threonine-protein kinase MRCK beta (Homo sapiens) (UniProt Q9Y5S2); conditions: Compound concentration 100.0 nM
[12] = molecular target: G protein-coupled receptor kinase 3 (Homo sapiens) (UniProt P35626); conditions: Compound concentration 100.0 nM
[13] = molecular target: T1, MAP kinase-activated protein kinase 5 (Homo sapiens) (UniProt Q8IW41); conditions: Compound concentration 100.0 nM
T1 sequence (whole entry): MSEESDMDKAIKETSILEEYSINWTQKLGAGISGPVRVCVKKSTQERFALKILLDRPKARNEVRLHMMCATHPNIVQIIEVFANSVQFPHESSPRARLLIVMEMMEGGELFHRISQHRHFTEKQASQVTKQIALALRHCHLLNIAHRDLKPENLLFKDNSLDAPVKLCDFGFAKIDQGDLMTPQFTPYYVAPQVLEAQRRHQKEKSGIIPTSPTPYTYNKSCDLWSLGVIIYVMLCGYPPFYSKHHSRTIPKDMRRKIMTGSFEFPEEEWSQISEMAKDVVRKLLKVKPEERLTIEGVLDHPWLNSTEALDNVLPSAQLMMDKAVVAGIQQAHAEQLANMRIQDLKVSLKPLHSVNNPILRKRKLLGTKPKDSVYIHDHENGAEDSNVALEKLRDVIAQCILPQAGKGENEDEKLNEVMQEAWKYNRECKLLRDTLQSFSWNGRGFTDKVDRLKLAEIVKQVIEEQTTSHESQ

[14] = test system: Phosphatidylinositol 4,5-bisphosphate 3-kinase catalytic subunit alpha isoform (Homo sapiens), P42336 [Q546K]; conditions: Compound concentration 100.0 nM
[15] = molecular target: Tyrosine-protein kinase ABL2 (Homo sapiens) (UniProt P42684); conditions: Compound concentration 100.0 nM
[16] = molecular target: Serine/threonine-protein kinase BRSK2 (Homo sapiens) (UniProt Q8IWQ3); conditions: Compound concentration 100.0 nM
[17] = molecular target: LIM domain kinase 1 (Homo sapiens) (UniProt P53667); conditions: Compound concentration 100.0 nM
[18] = molecular target: Cyclin-dependent kinase 18 (Homo sapiens) (UniProt Q07002); conditions: Compound concentration 100.0 nM
[19] = molecular target: 5-hydroxytryptamine receptor 6 (Homo sapiens) (UniProt P50406); conditions: Compound concentration 10.0 uM
[20] = molecular target: Death-associated protein kinase 2 (Homo sapiens) (UniProt Q9UIK4); conditions: Compound concentration 100.0 nM
[21] = molecular target: T2, Dual specificity mitogen-activated protein kinase kinase 6 (Homo sapiens) (UniProt P52564); conditions: Compound concentration 100.0 nM
T2 sequence (whole entry): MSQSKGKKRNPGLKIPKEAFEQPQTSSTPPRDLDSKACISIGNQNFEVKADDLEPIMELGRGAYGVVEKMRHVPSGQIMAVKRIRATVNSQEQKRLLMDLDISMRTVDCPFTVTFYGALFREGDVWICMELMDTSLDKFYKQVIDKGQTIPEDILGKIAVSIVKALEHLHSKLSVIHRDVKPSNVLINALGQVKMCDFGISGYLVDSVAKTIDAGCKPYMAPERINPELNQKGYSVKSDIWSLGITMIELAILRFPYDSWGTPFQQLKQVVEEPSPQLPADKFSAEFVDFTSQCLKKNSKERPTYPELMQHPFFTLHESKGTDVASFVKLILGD

[22] = molecular target: Wee1-like protein kinase (Homo sapiens) (UniProt P30291); conditions: Compound concentration 100.0 nM
[23] = molecular target: Dual specificity mitogen-activated protein kinase kinase 4 (Homo sapiens) (UniProt P45985); conditions: Compound concentration 100.0 nM
[24] = molecular target: Serine/threonine-protein kinase PAK 4 (Homo sapiens) (UniProt O96013); conditions: Compound concentration 100.0 nM
[25] = molecular target: Non-receptor tyrosine-protein kinase TYK2 (Homo sapiens) (UniProt P29597); conditions: Compound concentration 100.0 nM

Sequence of STE20-like serine/threonine-protein kinase (Homo sapiens) (Q9H2G2 whole entry, looked up): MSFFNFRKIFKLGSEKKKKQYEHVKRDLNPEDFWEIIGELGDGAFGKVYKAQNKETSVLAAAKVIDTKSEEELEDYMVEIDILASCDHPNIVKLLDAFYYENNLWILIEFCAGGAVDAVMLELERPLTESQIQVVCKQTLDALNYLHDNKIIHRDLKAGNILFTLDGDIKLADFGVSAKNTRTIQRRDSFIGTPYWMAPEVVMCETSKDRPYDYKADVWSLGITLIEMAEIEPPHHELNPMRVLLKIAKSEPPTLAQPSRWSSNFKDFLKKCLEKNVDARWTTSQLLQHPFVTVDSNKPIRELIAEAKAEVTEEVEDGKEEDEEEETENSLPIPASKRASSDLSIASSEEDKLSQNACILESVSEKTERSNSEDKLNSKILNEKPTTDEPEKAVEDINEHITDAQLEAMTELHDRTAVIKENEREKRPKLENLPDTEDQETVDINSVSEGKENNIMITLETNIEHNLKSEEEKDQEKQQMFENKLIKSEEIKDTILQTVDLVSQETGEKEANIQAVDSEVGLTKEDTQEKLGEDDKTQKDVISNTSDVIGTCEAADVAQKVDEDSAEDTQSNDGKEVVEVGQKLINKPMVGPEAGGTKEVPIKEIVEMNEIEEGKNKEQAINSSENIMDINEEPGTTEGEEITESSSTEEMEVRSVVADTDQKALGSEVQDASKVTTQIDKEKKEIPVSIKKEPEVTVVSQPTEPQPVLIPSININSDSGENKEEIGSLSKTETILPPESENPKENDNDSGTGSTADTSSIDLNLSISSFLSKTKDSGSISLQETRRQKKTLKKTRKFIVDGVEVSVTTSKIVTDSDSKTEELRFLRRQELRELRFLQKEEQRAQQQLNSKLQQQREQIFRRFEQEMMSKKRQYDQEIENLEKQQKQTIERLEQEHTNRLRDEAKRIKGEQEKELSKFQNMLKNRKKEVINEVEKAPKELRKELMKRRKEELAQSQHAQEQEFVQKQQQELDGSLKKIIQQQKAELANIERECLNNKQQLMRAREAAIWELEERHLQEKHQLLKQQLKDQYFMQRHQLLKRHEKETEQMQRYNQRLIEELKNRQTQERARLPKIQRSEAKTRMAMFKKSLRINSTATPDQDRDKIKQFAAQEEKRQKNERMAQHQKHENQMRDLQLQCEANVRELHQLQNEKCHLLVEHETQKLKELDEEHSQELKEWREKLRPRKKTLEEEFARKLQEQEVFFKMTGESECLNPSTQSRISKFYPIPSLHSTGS
Sequence of Dual specificity protein kinase CLK4 (Homo sapiens) (Q9HAZ1 whole entry, looked up): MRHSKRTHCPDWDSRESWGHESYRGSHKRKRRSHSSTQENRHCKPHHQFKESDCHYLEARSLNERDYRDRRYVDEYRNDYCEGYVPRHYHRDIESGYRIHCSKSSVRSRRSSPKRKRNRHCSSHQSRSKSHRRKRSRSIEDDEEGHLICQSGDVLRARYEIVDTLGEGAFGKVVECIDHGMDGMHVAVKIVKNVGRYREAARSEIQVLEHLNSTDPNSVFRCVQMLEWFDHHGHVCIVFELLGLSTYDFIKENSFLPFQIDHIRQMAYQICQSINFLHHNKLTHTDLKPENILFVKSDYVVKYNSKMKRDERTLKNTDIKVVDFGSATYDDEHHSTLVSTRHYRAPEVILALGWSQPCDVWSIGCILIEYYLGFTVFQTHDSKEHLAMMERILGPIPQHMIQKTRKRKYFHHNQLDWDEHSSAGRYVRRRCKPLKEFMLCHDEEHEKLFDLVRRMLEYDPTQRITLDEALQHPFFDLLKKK
Sequence of Phosphatidylinositol 4,5-bisphosphate 3-kinase catalytic subunit alpha isoform (Homo sapiens), P42336 [Q546K] (P42336 whole entry Q546K, canonical isoform): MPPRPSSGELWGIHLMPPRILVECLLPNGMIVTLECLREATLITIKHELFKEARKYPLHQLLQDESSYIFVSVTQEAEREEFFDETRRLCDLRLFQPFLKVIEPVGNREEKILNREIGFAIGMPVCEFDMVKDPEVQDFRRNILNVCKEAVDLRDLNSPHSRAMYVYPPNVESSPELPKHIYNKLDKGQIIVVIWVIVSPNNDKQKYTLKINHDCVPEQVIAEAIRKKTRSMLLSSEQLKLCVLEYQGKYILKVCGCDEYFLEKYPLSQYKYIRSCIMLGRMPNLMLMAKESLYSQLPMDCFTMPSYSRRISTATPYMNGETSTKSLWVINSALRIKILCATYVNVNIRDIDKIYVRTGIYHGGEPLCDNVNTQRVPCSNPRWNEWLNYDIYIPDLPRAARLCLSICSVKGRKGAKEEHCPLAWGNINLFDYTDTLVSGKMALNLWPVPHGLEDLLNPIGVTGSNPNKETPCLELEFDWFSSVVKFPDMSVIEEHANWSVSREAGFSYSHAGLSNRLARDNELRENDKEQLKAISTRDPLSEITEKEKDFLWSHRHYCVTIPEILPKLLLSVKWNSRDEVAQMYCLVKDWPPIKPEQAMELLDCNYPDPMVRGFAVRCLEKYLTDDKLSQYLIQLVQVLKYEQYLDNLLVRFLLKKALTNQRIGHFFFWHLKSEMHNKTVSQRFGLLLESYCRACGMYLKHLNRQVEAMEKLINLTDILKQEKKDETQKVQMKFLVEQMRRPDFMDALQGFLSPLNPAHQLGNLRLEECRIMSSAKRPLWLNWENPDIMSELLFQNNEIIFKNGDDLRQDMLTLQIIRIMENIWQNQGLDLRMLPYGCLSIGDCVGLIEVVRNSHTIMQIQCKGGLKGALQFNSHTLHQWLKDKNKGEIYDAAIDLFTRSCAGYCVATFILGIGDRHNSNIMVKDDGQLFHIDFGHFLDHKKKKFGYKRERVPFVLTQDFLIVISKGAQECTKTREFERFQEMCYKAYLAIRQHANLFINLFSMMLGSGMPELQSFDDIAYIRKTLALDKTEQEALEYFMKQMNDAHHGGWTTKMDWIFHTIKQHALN
Sequence of Wee1-like protein kinase (Homo sapiens) (P30291 whole entry, looked up): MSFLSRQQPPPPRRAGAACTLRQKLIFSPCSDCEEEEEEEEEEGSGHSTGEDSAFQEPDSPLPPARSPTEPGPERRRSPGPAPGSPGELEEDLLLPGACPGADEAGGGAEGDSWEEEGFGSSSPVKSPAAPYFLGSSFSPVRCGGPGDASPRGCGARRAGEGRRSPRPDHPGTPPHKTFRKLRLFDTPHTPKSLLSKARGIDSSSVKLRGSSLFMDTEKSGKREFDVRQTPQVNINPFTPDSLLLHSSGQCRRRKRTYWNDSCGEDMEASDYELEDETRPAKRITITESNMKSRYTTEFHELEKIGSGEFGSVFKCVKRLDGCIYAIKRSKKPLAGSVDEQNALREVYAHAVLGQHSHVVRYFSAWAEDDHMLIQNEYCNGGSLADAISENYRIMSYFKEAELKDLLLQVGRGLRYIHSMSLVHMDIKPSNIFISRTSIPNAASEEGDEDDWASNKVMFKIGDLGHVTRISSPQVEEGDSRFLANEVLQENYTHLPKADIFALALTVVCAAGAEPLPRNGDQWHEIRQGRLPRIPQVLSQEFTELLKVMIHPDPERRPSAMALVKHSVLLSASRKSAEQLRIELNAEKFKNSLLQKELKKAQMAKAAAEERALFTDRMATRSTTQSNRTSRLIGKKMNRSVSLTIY
Sequence of TGF-beta receptor type-1 (Homo sapiens) (P36897 whole entry): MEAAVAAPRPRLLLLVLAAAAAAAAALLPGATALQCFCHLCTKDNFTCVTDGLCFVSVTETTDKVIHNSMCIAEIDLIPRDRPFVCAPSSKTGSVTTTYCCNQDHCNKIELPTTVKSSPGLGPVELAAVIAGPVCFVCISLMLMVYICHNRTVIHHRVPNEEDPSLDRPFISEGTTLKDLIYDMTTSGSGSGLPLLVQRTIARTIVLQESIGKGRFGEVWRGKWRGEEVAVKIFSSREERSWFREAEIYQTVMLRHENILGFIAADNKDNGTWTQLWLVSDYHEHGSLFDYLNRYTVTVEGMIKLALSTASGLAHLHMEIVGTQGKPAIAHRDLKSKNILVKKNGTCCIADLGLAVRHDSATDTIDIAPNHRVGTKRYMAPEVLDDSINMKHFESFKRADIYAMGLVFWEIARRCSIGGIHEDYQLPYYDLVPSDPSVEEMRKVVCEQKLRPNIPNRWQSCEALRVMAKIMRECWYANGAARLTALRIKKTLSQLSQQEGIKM
Sequence of Fibroblast growth factor receptor 1 (Homo sapiens) (P11362 22-822 limits assumed): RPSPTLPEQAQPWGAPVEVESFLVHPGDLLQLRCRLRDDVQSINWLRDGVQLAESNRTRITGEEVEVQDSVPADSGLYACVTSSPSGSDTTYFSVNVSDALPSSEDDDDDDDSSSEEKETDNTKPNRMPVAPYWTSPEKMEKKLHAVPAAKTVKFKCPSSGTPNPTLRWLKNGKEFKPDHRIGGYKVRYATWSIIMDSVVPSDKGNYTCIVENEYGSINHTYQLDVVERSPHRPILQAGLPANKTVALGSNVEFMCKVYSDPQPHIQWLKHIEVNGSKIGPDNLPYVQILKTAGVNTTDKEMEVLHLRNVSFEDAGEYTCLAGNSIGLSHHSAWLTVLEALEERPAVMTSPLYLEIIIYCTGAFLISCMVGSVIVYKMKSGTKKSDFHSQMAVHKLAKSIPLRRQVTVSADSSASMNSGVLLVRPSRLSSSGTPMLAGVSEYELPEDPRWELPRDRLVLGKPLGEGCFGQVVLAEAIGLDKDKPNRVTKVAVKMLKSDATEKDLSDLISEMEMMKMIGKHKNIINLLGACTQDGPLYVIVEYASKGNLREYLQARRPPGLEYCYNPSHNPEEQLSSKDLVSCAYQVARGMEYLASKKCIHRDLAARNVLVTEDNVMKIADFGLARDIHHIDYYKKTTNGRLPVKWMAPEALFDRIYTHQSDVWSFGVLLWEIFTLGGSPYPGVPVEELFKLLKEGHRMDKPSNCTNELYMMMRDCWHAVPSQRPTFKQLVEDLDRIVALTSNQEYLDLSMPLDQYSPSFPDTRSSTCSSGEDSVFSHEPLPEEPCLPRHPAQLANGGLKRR

Cc1c[nH]c2nccc(Oc3c(F)cc(Nc4cc(Cl)nc(N)n4)cc3F)c12 [BAY-549]
inactive: inhibition [1] 23.7% | residual activity [2] 97% | residual activity [3] 100% | residual activity [4] 90% | residual activity [5] 85% | residual activity [6] 76% | residual activity [7] 81% | residual activity [8] 86% | residual activity [9] 66% | residual activity [10] 89% | residual activity [11] 70% | residual activity [12] 78% | residual activity [13] 81% | residual activity [14] 76% | residual activity [15] 86% | residual activity [16] 92% | residual activity [17] 87% | residual activity [18] 100% | inhibition [19] -1.5% | residual activity [20] 89% | residual activity [21] 99% | residual activity [22] 100% | residual activity [23] 99% | residual activity [24] 100% | residual activity [25] 89%

Cn1cc(Cl)c2c(Oc3c(F)cc(Nc4cc(Cl)nc(N)n4)cc3F)ccnc21 [BAY-4900]
inactive: inhibition [1] 16.7% | residual activity [2] 98% | residual activity [3] 100% | residual activity [4] 100% | residual activity [5] 85% | residual activity [6] 94% | residual activity [7] 93% | residual activity [8] 100% | residual activity [9] 99% | residual activity [10] 79% | residual activity [11] 100% | residual activity [12] 83% | residual activity [13] 100% | residual activity [14] 76% | residual activity [15] 99% | residual activity [16] 100% | residual activity [17] 90% | residual activity [18] 100% | inhibition [19] -1.64% | residual activity [20] 100% | residual activity [21] 100% | residual activity [22] 91% | residual activity [23] 80% | residual activity [24] 100% | residual activity [25] 85%
